The values below are quoted from earlier work in US20110053889A1, “Prenatal and postnatal screening and treatment of critical monosaccharide deficiencies for neurologic and immunologic function” (priority 2008, published 2011).

The conditions of data set [1]: oral 50-100 mg/kg body weight, healthy volunteers (Marquardt et al., 1999).
The conditions of data set [2]: patient with LAD II (Marquardt et al., 1999).
For data set [3] the following is noted: for Estimated Safe Daily Dose (mg) in 68 kg human: 68 kg human (Gardiner, 2004); for Estimated Safe Daily Dose: based on ADME and safety data and margin-of-safety (Gardiner, 2004).
The subject of data set [4] is E. coli. Particulars: topical solution applied to maternal vaginas prior to delivery; control 77% (Cox and Taylor, 1990).
The conditions of data set [5]: oral single doses (Alton et al., 1997).
For data set [6] the following is noted: oral 0.07-0.21 g/kg body weight, humans (Alton et al., 1997).
Data set [7] concerns E. coli. Particulars: injected, rats (Michaels et al., 1983).
For data set [8] the following is noted: rats.
The conditions of data set [9]: oral 1 gram, humans (Talent and Gracy, 1996).
The conditions of data set [10]: radiolabeled injection (Martin et al., 1998).
For data set [11] the following is noted: ingested (Martin et al., 1998).

Read-outs that look alike come from different tables or passages of the source. Where only a bound is given, the exact number is not on record here.

For `C[C@H](O)[C@@H](O)[C@@H](O)[C@H](O)C=O` [Fucose, L-fucose], in [1], the clearance half-time was 100 min and the “time to peak serum fucose concentration” value is 1 h. Besides, the “clinical outcome of oral supplementation” value in [2] was “clinical disappearance of infections and fever”. Moreover, in [3], the “Estimated Safe Daily Dose (mg) in 68 kg human” value (“Estimated Safe Daily Dose (mg)” below) is reported as 34,000 mg and the “Estimated Safe Daily Dose” value is 500 mg/kg/day.
Consider `O=C[C@H](O)[C@@H](O)[C@@H](O)[C@H](O)CO` [Galactose, D-galactose], for which, in data set [3], the “Estimated Safe Daily Dose (mg)” value is on record as 50,000 mg and the “Estimated Safe Daily Dose” value was 735 mg/kg/day.
Take `O=C[C@H](O)[C@@H](O)[C@H](O)[C@H](O)CO` [Glucose, D-glucose]: in data set [3], the “Estimated Safe Daily Dose (mg)” value was 150,000 mg and the “Estimated Safe Daily Dose” value is on record as 2,200 mg/kg/d.
`O=C[C@@H](O)[C@@H](O)[C@H](O)[C@H](O)CO` [Mannose, mannose]: the “E. coli bacteremia in newborns” value in the data set with E. coli [4] is reported as 25%. Besides, the “single dose that induces osmotic diarrhea” value in data set [5] is recorded as > 200 mg/kg body wt. Besides, in [6], the clearance half-time result was “about 4 hours” and the “time to peak blood mannose concentration” value was “approximately 90 minutes”. Besides, the “time to reduction of E. coli bacteriuria” value with E. coli [7] is ≤ 1 days. Also, in data set [3], the “Estimated Safe Daily Dose (mg)” value is on record as 53,000 mg and the “Estimated Safe Daily Dose” value is 779 mg/kg/day. Besides, in [8] (at 1-8 hours), the “increase of glycoprotein incorporation in organs” value is listed as 2- to 6 fold. In data set [8] (oral, radiolabeled), the “time to absorption into the serum” value is ≤ 1 h.
In the case of `CC(=O)N[C@H]1C(O)O[C@H](CO)[C@@H](O)[C@@H]1O` (stereo partly shown) [N-acetylglucosamine], in [3], the “Estimated Safe Daily Dose (mg)” value is reported as 1,000 mg and the “Estimated Safe Daily Dose” value is 15 mg/kg/day. For the same compound, the “time to significant rise in serum levels of GlcNAc” value in [9] is ≤ 1 h.
Consider `CC(=O)N[C@H]1[C@H]([C@H](O)[C@H](O)CO)OC(O)(C(=O)O)C[C@@H]1O` (stereo partly shown) [Sialic Acid, N-acetylneuraminic acid], for which, in data set [3], the “Estimated Safe Daily Dose (mg)” value is 140 mg and the “Estimated Safe Daily Dose” value is 2 mg/kg/day.
As for `N[C@H]1C(O)O[C@H](CO)[C@@H](O)[C@@H]1O` (stereo partly shown) [Glucosamine, glucosamine], in data set [10], the “protein-bound radioactivity in the form of sialic acid” value is given as 25-30%. In data set [11], the “fraction of the dose oxidized” value is listed as “about one-half”.
